Measurements from the supplement of paper PMC10307832.

Assays:
Experiment in all cases: relative viability (nuclei count vs DMSO), 5 days (fraction); higher = more cells survive
HCC-366 = tested on: HCC-366
Summary of the method: (§1)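 Dosing by pin tool came one day after lung cancer cell lines were seeded in 1536-well plates, using either one drug or a fixed anchor-drug dose plus five library-drug doses (not always all listed) in √10 steps. After 5 days, nuclei were counted on 4× images. Relative viability is treated-well nuclei count divided by vehicle-well nuclei count, and values are medians of duplicate plates.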

HCC-44 = tested on: HCC-44
Summary of the method: as §1

NCI-H1437 = tested on: NCI-H1437
Summary of the method: as §1

NCI-H3122 = tested on: NCI-H3122
Summary of the method: as §1

EBC-1 = tested on: EBC-1
Summary of the method: as §1

NCI-H2085 = tested on: NCI-H2085
Summary of the method: as §1

NCI-H1299 = tested on: NCI-H1299
Summary of the method: as §1

LOU-NH91 = tested on: LOU-NH91
Summary of the method: as §1

A549 = tested on: A549
Summary of the method: as §1

NCI-H1703 = tested on: NCI-H1703
Summary of the method: as §1

IA-LM = tested on: IA-LM
Summary of the method: as §1

Calu-6 = tested on: Calu-6
Summary of the method: as §1

`O=c1cc(N2CCOCC2)oc2c(-c3cccc4c3sc3ccccc34)cccc12` + C[C@]1(O)C[C@@H](c2nc(-c3ccc4ccc(-c5ccccc5)nc4c3)c3c(N)nccn32)C1 [Linsitinib] (partner 1 µM) showed a relative viability (HCC-366; first compound 0.01 µM) of 0.671, a relative viability (HCC-366; first compound 0.03162 µM) of 0.656 and a relative viability (HCC-366; first compound 0.1 µM) of 0.797. For the same compound, the relative viability (HCC-366; first compound 0.3162 µM) was 0.662, the relative viability (HCC-366; first compound 1 µM) was 0.625 and the relative viability (HCC-44; first compound 0.01 µM) was 0.748. It also gave a relative viability (HCC-44; first compound 0.03162 µM) of 0.661, a relative viability (HCC-44; first compound 0.1 µM) of 0.655 and a relative viability (HCC-44; first compound 0.3162 µM) of 0.684. The relative viability (HCC-44; first compound 1 µM) was 0.584, the relative viability (NCI-H1437; first compound 0.01 µM) was 1.01 and the relative viability (NCI-H1437; first compound 0.03162 µM) was 1.11. For the same compound, the relative viability (NCI-H1437; first compound 0.1 µM) was 1.09, the relative viability (NCI-H1437; first compound 0.3162 µM) was 1 and the relative viability (NCI-H1437; first compound 1 µM) was 0.979. It also gave a relative viability (NCI-H3122; first compound 0.01 µM) of 1.01, a relative viability (NCI-H3122; first compound 0.03162 µM) of 0.977 and a relative viability (NCI-H3122; first compound 0.1 µM) of 1.12. It also gave a relative viability (NCI-H3122; first compound 0.3162 µM) of 1.03, a relative viability (NCI-H3122; first compound 1 µM) of 0.944 and a relative viability (EBC-1; first compound 0.01 µM) of 0.973. It also gave a relative viability (EBC-1; first compound 0.03162 µM) of 0.942, a relative viability (EBC-1; first compound 0.1 µM) of 0.835 and a relative viability (EBC-1; first compound 0.3162 µM) of 1.06. The relative viability (EBC-1; first compound 1 µM) was 0.993, the relative viability (NCI-H2085; first compound 0.01 µM) was 0.983 and the relative viability (NCI-H2085; first compound 0.03162 µM) was 0.914. For the same compound, the relative viability (NCI-H2085; first compound 0.1 µM) was 0.933, the relative viability (NCI-H2085; first compound 0.3162 µM) was 0.889 and the relative viability (NCI-H2085; first compound 1 µM) was 0.821. For the same compound, the relative viability (NCI-H1299; first compound 0.01 µM) was 0.972, the relative viability (NCI-H1299; first compound 0.03162 µM) was 0.937 and the relative viability (NCI-H1299; first compound 0.1 µM) was 0.945. For the same compound, the relative viability (NCI-H1299; first compound 0.3162 µM) was 1.01, the relative viability (NCI-H1299; first compound 1 µM) was 0.995 and the relative viability (LOU-NH91; first compound 0.01 µM) was 0.857. The relative viability (LOU-NH91; first compound 0.03162 µM) was 0.937, the relative viability (LOU-NH91; first compound 0.1 µM) was 0.938 and the relative viability (LOU-NH91; first compound 0.3162 µM) was 1.03. For the same compound, the relative viability (LOU-NH91; first compound 1 µM) was 0.936, the relative viability (A549; first compound 0.01 µM) was 0.568 and the relative viability (A549; first compound 0.03162 µM) was 0.613. The relative viability (A549; first compound 0.1 µM) was 0.577, the relative viability (A549; first compound 0.3162 µM) was 0.663 and the relative viability (A549; first compound 1 µM) was 0.592. For the same compound, the relative viability (NCI-H1703; first compound 0.01 µM) was 0.786, the relative viability (NCI-H1703; first compound 0.03162 µM) was 0.991 and the relative viability (NCI-H1703; first compound 0.1 µM) was 0.684. It also gave a relative viability (NCI-H1703; first compound 0.3162 µM) of 0.641, a relative viability (NCI-H1703; first compound 1 µM) of 0.919 and a relative viability (IA-LM; first compound 0.01 µM) of 0.667. The relative viability (IA-LM; first compound 0.03162 µM) was 0.684, the relative viability (IA-LM; first compound 0.1 µM) was 0.698 and the relative viability (IA-LM; first compound 0.3162 µM) was 0.506. The relative viability (IA-LM; first compound 1 µM) was 0.589, the relative viability (Calu-6; first compound 0.01 µM) was 0.963 and the relative viability (Calu-6; first compound 0.03162 µM) was 0.935. The relative viability (Calu-6; first compound 0.1 µM) was 1.06, the relative viability (Calu-6; first compound 0.3162 µM) was 0.944 and the relative viability (Calu-6; first compound 1 µM) was 0.983.

With `CCN(CC)CCCCNc1ncc2cc(-c3cc(OC)cc(OC)c3)c(NC(=O)NC(C)(C)C)nc2n1` + C[C@]1(O)C[C@@H](c2nc(-c3ccc4ccc(-c5ccccc5)nc4c3)c3c(N)nccn32)C1 [Linsitinib] (partner 1 µM) the relative viability (HCC-366; first compound 0.01 µM) was 0.622, the relative viability (HCC-366; first compound 0.03162 µM) was 0.706 and the relative viability (HCC-366; first compound 0.1 µM) was 0.66. For the same compound, the relative viability (HCC-366; first compound 0.3162 µM) was 0.887, the relative viability (HCC-366; first compound 1 µM) was 0.505 and the relative viability (HCC-44; first compound 0.01 µM) was 0.752. The relative viability (HCC-44; first compound 0.03162 µM) was 0.709, the relative viability (HCC-44; first compound 0.1 µM) was 0.749 and the relative viability (HCC-44; first compound 0.3162 µM) was 0.684. For the same compound, the relative viability (HCC-44; first compound 1 µM) was 0.614, the relative viability (NCI-H1437; first compound 0.01 µM) was 1.27 and the relative viability (NCI-H1437; first compound 0.03162 µM) was 1.05. It also gave a relative viability (NCI-H1437; first compound 0.1 µM) of 1.13, a relative viability (NCI-H1437; first compound 0.3162 µM) of 1.22 and a relative viability (NCI-H1437; first compound 1 µM) of 0.817. It also gave a relative viability (NCI-H3122; first compound 0.01 µM) of 1.05, a relative viability (NCI-H3122; first compound 0.03162 µM) of 1.02 and a relative viability (NCI-H3122; first compound 0.1 µM) of 1.08. For the same compound, the relative viability (NCI-H3122; first compound 0.3162 µM) was 1.04, the relative viability (NCI-H3122; first compound 1 µM) was 1.01 and the relative viability (EBC-1; first compound 0.01 µM) was 0.885. It also gave a relative viability (EBC-1; first compound 0.03162 µM) of 1.04, a relative viability (EBC-1; first compound 0.1 µM) of 0.994 and a relative viability (EBC-1; first compound 0.3162 µM) of 1.06. It also gave a relative viability (EBC-1; first compound 1 µM) of 0.879, a relative viability (NCI-H2085; first compound 0.01 µM) of 0.977 and a relative viability (NCI-H2085; first compound 0.03162 µM) of 0.949. It also gave a relative viability (NCI-H2085; first compound 0.1 µM) of 1.07, a relative viability (NCI-H2085; first compound 0.3162 µM) of 0.918 and a relative viability (NCI-H2085; first compound 1 µM) of 0.887. The relative viability (NCI-H1299; first compound 0.01 µM) was 1.01, the relative viability (NCI-H1299; first compound 0.03162 µM) was 1.01 and the relative viability (NCI-H1299; first compound 0.1 µM) was 0.986. It also gave a relative viability (NCI-H1299; first compound 0.3162 µM) of 1.09, a relative viability (NCI-H1299; first compound 1 µM) of 0.944 and a relative viability (LOU-NH91; first compound 0.01 µM) of 0.882. For the same compound, the relative viability (LOU-NH91; first compound 0.03162 µM) was 0.938, the relative viability (LOU-NH91; first compound 0.1 µM) was 0.968 and the relative viability (LOU-NH91; first compound 0.3162 µM) was 0.996. It also gave a relative viability (LOU-NH91; first compound 1 µM) of 0.93, a relative viability (A549; first compound 0.01 µM) of 0.623 and a relative viability (A549; first compound 0.03162 µM) of 0.626. The relative viability (A549; first compound 0.1 µM) was 0.563, the relative viability (A549; first compound 0.3162 µM) was 0.636 and the relative viability (A549; first compound 1 µM) was 0.595. The relative viability (NCI-H1703; first compound 0.01 µM) was 1.02, the relative viability (NCI-H1703; first compound 0.03162 µM) was 0.63 and the relative viability (NCI-H1703; first compound 0.1 µM) was 0.792. For the same compound, the relative viability (NCI-H1703; first compound 0.3162 µM) was 0.959, the relative viability (NCI-H1703; first compound 1 µM) was 0.967 and the relative viability (IA-LM; first compound 0.01 µM) was 0.757. It also gave a relative viability (IA-LM; first compound 0.03162 µM) of 0.748, a relative viability (IA-LM; first compound 0.1 µM) of 0.621 and a relative viability (IA-LM; first compound 0.3162 µM) of 0.78. It also gave a relative viability (IA-LM; first compound 1 µM) of 0.506, a relative viability (Calu-6; first compound 0.03162 µM) of 0.946 and a relative viability (Calu-6; first compound 0.1 µM) of 0.969. For the same compound, the relative viability (Calu-6; first compound 0.3162 µM) was 0.898 and the relative viability (Calu-6; first compound 1 µM) was 1.02.
